Drawing on paper PMC3579662 (Journal of the American Chemical Society, 2013), this text covers Ki and KM for three compounds.

The target in assay [1] is T1, alanine racemase (AR); light protiated form HAR (Geobacillus stearothermophilus, UniProt P10724). The assay can be described thus: steady-state racemization kinetics, competitive inhibition. The assay is classed as biochemical.
Assay [2] deals with T1, alanine racemase (AR); light protiated form HAR. The assay can be described thus: Michaelis-Menten saturation curves. The conditions noted are these: pH 8.9, 25 °C; light (protiated) enzyme. The assay is classed as biochemical.

Molecules are shown by their SMILES.

T1 sequence (P10724 whole entry): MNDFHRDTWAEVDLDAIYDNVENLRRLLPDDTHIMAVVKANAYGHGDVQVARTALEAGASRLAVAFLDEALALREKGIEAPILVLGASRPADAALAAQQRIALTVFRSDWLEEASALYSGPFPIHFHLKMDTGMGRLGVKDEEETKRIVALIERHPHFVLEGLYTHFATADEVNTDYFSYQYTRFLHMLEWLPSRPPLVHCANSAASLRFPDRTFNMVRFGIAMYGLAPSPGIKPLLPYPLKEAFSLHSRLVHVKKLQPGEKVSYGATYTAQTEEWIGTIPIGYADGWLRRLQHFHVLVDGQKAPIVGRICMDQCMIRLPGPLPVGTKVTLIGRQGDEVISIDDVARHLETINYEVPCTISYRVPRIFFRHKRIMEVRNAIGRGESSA

`CC(C)(N)C(=O)O` [2-methylalanine] registered an inhibitory constant (Ki) in assay [1] of 24 ± 1 mM.

In the case of `C[C@@H](N)C(=O)O` [D-alanine], in assay [2], the KM entry was “Michaelis-Menten saturation curves for ^HAR and ^DAR with protiated L- and D-alanine”.

`C[C@H](N)C(=O)O` [L-alanine]: the KM entry in assay [2] is “Michaelis-Menten saturation curves for ^HAR and ^DAR with protiated L- and D-alanine”.

As usually defined, the Ki is a measure of affinity in units of concentration, obtained from inhibition or displacement.
